The source of these data is ChEMBL document CHEMBL5465560, “Selectivity Literature for EUbOPEN Chemogenomic Library” (2024).

The target in test [1] is Mitogen-activated protein kinase 3 (Homo sapiens, UniProt P27361). Particulars: at 10 µM.
Test [2] deals with T1, cAMP-dependent protein kinase catalytic subunit PRKX (Homo sapiens) (UniProt P51817).
T1 sequence (whole entry): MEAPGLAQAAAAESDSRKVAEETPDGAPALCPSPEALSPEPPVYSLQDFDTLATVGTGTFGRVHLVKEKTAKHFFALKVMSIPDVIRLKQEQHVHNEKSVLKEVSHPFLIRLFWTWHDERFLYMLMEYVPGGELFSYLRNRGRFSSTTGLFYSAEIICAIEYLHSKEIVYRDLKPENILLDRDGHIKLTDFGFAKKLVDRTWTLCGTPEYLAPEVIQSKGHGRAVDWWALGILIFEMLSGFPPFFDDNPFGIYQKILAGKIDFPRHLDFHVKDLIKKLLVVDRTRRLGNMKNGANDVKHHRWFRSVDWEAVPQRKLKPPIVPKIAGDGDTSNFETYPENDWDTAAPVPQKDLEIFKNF
Briefly: Selectivity interaction (KinomeScan (DiscoverX)) EUB0000695a PRKX. As to conditions: at 100 nM.

The target of test [3] is T2, cGMP-dependent protein kinase 1 (Homo sapiens) (UniProt Q13976).
T2 sequence (whole entry): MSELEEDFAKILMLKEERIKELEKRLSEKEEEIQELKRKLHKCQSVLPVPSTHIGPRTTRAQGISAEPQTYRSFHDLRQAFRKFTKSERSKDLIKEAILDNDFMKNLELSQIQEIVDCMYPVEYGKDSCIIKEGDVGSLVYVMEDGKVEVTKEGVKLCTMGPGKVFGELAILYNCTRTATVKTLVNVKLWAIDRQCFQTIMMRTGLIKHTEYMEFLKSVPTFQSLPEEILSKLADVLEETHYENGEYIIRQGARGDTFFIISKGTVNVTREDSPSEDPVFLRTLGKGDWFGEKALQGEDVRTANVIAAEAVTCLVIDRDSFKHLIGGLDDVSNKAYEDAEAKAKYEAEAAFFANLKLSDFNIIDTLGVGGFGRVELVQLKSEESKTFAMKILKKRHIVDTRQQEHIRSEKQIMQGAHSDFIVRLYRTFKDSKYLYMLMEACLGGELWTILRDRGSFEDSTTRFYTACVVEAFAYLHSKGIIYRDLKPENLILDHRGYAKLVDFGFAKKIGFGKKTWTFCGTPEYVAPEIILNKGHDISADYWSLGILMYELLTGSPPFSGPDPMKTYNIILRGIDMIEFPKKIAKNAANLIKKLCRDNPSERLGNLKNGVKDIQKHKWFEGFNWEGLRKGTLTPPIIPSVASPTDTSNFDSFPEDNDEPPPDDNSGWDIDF
Particulars: at 10 µM.

In test [4] the target is Ribosomal protein S6 kinase alpha-6 (Homo sapiens, UniProt Q9UK32). Particulars: at 10 µM.
Sequence of Ribosomal protein S6 kinase alpha-6 (Q9UK32 whole entry): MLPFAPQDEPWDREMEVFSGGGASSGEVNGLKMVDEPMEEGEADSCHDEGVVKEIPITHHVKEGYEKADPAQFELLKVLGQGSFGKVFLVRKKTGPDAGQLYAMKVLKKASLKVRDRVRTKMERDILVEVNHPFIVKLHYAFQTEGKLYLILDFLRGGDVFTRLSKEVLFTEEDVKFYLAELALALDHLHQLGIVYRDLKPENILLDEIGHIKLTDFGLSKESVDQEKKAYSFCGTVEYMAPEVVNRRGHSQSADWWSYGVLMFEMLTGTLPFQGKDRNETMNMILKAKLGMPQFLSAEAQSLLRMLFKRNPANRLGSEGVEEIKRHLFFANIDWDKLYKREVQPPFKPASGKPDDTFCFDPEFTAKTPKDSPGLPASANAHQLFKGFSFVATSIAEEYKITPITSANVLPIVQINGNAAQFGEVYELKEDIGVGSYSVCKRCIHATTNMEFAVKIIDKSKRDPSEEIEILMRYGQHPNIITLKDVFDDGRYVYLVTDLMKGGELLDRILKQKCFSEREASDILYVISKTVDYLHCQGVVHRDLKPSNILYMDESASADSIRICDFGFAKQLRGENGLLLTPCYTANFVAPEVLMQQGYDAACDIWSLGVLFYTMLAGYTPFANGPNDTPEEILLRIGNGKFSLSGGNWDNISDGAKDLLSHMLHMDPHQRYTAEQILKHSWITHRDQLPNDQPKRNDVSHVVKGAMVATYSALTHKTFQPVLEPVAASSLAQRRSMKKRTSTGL
The target of test [5] is T3, Tyrosine-protein kinase receptor TYRO3 (Homo sapiens) (UniProt Q06418).
T3 sequence (whole entry): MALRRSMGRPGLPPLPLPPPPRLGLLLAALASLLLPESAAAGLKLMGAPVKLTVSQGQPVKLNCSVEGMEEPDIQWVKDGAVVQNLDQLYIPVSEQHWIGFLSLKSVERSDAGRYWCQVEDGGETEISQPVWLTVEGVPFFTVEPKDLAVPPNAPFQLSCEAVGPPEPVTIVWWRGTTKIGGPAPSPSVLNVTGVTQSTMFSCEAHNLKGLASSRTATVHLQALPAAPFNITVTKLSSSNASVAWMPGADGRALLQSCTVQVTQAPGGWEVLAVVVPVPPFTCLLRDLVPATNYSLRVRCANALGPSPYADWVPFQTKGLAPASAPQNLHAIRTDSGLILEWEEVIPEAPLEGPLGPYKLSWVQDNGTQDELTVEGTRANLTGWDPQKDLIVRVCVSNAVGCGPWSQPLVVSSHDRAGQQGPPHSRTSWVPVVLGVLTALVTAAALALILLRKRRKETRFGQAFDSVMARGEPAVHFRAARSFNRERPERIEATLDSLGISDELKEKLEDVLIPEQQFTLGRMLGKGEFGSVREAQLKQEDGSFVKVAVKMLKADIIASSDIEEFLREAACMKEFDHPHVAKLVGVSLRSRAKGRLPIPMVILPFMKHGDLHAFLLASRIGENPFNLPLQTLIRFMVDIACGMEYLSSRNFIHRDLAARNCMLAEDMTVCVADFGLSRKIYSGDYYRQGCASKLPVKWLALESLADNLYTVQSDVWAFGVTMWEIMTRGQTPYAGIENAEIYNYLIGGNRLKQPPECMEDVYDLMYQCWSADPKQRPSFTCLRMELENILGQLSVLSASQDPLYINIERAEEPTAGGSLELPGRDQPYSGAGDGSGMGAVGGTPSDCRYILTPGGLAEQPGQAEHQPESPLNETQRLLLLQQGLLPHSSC
Briefly: Selectivity interaction (ProQinase) EUB0000171b TYRO3.

The target of test [6] is Tyrosine-protein kinase SYK (Homo sapiens, UniProt P43405). Briefly: Selectivity interaction (KinomeScan (DiscoverX)) EUB0001049a SYK. As to conditions: at 1 µM.
The target of test [7] is Phosphorylase b kinase gamma catalytic chain, skeletal muscle/heart isoform (Homo sapiens) (UniProt Q16816). Description: Selectivity interaction (KinomeScan (DiscoverX)) EUB0000092b PHKG1. Particulars: at 10 µM.
Sequence of Phosphorylase b kinase gamma catalytic chain, skeletal muscle/heart isoform (Homo sapiens) (Q16816 whole entry, looked up, canonical isoform): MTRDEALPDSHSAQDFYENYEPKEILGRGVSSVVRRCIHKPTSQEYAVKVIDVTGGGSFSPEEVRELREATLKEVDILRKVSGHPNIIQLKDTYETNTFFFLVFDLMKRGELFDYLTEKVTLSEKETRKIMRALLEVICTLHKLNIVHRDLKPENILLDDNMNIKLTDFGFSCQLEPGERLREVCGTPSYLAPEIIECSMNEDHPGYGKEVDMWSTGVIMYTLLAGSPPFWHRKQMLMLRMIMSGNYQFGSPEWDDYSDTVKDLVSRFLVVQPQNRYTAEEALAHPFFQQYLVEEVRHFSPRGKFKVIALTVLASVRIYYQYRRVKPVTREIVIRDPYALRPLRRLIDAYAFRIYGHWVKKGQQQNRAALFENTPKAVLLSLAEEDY
For test [8], the target named is Nuclear body protein SP140-like protein (Homo sapiens) (UniProt Q9H930). Description: Selectivity interaction (Human bromodomain panel (DSF assay)) EUB0000233b SP140L.
Sequence of Nuclear body protein SP140-like protein (Homo sapiens) (Q9H930 whole entry): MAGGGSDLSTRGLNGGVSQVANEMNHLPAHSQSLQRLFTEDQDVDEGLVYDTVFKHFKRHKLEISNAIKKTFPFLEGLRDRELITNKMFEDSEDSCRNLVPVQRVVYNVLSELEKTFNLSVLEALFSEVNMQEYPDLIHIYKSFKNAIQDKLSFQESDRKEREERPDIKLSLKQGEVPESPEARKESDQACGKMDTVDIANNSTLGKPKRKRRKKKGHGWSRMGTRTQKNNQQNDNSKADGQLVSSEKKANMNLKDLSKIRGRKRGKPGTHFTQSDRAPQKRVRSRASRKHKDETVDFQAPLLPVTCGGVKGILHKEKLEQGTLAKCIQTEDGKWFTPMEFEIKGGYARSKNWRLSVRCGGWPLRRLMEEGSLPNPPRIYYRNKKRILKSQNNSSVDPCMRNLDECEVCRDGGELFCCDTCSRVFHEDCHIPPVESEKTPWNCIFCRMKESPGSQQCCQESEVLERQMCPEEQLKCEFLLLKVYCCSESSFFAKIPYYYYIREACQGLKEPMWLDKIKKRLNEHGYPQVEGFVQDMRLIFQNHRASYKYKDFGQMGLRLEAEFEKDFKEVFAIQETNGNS
In test [9] the target is Calcium/calmodulin-dependent protein kinase type II subunit delta (Homo sapiens) (UniProt Q13557). Description: Selectivity interaction (Kinase panel (DSF assay)) EUB0001558a CAMK2D. (In general: In DSF a fluorescence change marks the thermal transition of the protein.)
Sequence of Calcium/calmodulin-dependent protein kinase type II subunit delta (Homo sapiens) (Q13557 whole entry): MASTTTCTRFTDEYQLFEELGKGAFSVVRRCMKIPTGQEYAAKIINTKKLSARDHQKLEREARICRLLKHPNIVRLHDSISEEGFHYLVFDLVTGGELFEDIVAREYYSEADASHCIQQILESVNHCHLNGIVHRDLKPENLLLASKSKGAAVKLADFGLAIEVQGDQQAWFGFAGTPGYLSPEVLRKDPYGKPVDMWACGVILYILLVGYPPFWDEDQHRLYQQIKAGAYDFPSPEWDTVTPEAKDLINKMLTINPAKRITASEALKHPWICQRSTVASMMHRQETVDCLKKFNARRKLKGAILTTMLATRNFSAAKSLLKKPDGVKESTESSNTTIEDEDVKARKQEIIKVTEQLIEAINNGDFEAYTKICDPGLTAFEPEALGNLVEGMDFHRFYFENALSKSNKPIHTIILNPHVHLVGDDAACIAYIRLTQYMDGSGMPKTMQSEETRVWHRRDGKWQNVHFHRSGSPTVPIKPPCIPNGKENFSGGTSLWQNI
Test [10] addresses Cyclin-dependent kinase 9 (Homo sapiens, UniProt P50750). Description: Selectivity interaction (SelectScreen Kinase Profiling (Thermo Fisher Scientific)) EUB0001558a CDK9. Particulars: at 1 µM.

Sequence of Mitogen-activated protein kinase 3 (P27361 whole entry): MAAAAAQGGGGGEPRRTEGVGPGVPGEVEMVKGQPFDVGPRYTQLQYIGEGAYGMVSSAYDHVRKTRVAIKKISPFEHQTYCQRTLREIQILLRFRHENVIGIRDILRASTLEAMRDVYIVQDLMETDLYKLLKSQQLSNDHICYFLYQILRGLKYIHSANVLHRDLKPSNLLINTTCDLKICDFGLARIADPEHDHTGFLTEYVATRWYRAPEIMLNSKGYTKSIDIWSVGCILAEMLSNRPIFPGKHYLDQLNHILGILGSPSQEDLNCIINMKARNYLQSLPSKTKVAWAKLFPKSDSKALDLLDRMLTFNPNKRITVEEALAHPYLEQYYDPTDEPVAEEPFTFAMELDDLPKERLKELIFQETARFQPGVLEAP
Sequence of Cyclin-dependent kinase 9 (P50750 whole entry): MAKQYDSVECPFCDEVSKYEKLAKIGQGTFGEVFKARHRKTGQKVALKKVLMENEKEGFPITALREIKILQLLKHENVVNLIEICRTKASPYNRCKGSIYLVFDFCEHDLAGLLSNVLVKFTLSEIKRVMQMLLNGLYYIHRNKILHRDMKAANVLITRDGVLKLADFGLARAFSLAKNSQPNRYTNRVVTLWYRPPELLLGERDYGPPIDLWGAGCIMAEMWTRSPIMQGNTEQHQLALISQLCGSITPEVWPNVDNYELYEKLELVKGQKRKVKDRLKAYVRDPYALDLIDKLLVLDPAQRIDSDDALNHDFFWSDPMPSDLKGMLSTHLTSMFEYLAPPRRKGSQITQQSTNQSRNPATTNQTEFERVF

`CCN(CC)CCCCNc1ncc2cc(-c3cc(OC)cc(OC)c3)c(NC(=O)NC(C)(C)C)nc2n1`: the % of control in test [1] was determined as 100%.
Take `Cc1cc(F)c(C(=O)Nc2cccc(-c3nncn3C(C)C)n2)cc1-n1cnc(C2CC2)c1`: in test [2], the % of control was 100%.
Regarding `Cc1cc([C@@H](C)Nc2ccccc2C(=O)O)c2nc(N3CCOCC3)cc(=O)n2c1` [AZD-6482], the % of control in [3] and in [4] was 100% in each case.
Consider `C=CC(=O)Nc1cccc(C(=O)Nc2ccc(Nc3cc(-c4[nH]c(SC)nc4C)ccn3)cc2)c1`, for which the % of control was determined as 100% in test [5] (at 1 µM) and 86% in [5] (at 5 µM).
Consider `COc1cc(Nc2nc(C)cc(-c3cnn4nc(OC)ccc34)n2)cc(C(F)(F)F)c1`, for which the % of control in test [6] worked out at 100%.
Compound `CCC(=O)N1CCN(c2ccc(-n3c(=O)ccc4cnc5ccc(-c6cnc7ccccc7c6)cc5c43)cc2C(F)(F)F)CC1` yielded a % of control in [7] of 100%.
`CN(C)CCCOc1ccc(-c2cc(NCCCn3cccn3)nc(S(C)(=O)=O)n2)cc1` showed a dTM in [8] of under 2 K.
As for `CC(C)(O)[C@H](F)CN1Cc2cc(NC(=O)c3cnn4cccnc34)c(N3CCOCC3)cc2C1=O`, the dTM in test [9] was found to be 0.3 K. The compound further yielded a % of inhibition in test [10] of 74.5%.
